Earlier results, collected in patent US10039775B2, “Preparation method for antitumor drug AP26113” (SUZHOU MIRACPHARMA TECHNOLOGY CO., LTD., priority 2015, dated 2018).

Key:
[1] = system: ALK positive nonsmall cell lung cancer; conditions: clinical data; patients with ALK positive nonsmall cell lung cancer, including brain metastases patients
[2] = system: crizotinib resistant ALK mutation; conditions: nine identified crizotinib resistant ALK mutations
ALK = ALK (Homo sapiens, UniProt Q9UM73); conditions: ratio versus crizotinib
Chain of ALK (Q9UM73 19-1620): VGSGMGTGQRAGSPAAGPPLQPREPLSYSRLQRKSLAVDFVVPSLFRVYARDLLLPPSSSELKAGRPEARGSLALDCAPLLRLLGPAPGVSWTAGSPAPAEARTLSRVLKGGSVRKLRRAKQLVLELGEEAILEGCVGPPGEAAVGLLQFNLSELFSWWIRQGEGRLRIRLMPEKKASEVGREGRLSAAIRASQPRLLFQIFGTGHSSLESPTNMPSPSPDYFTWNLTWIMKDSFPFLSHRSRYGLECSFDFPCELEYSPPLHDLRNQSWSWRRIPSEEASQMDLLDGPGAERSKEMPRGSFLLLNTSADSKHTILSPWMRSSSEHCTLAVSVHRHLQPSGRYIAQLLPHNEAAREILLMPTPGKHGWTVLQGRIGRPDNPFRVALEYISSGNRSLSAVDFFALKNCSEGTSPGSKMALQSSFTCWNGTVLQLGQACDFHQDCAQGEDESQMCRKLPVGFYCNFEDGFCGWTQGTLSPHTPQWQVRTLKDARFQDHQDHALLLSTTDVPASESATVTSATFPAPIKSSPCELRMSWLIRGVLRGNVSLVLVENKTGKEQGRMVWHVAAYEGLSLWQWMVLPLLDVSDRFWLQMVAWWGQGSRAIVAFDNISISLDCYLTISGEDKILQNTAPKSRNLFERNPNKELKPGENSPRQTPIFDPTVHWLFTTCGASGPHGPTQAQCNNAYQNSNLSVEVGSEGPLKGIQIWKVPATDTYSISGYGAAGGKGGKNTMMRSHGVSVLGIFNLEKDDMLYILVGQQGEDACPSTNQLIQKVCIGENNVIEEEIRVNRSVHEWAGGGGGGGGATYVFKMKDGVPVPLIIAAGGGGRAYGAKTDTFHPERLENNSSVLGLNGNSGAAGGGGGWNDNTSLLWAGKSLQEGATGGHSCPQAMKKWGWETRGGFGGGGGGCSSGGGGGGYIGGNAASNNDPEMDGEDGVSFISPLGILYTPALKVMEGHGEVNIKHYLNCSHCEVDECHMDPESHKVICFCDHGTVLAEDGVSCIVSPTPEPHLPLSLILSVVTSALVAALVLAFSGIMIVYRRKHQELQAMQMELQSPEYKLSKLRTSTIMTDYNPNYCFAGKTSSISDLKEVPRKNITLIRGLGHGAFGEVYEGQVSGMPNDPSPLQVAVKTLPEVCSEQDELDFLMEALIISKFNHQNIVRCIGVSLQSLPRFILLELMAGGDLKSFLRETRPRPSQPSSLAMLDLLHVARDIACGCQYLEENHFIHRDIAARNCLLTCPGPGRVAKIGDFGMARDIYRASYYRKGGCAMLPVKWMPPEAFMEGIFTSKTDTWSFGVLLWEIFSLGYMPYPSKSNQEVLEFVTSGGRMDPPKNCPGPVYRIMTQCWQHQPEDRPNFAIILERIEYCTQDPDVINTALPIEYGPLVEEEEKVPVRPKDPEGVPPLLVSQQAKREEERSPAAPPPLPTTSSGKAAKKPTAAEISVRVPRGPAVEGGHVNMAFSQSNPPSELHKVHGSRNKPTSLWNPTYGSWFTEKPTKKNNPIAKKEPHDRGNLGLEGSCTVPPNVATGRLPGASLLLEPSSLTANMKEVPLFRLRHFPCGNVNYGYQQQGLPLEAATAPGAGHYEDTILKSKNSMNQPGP

inhibitory activity to ALK relative to the inhibitor activity of crizotinib to ALK (ALK): about 10 times
SMILES: COc1cc(N2CCC(N(C)C)CC2)ccc1Nc1ncc(Cl)c(Nc2ccccc2P(C)(C)=O)n1 [AP26113, 5-chloro-N2-[4-[4-(dimethylamino)-1-piperidyl]-2-methoxyphenyl]-N4-[2-(dimethyl phosphitylate)phenyl]-2,4-diaminopyrimidine]
anti-tumor activity on patients [1]: continuous anti-tumor activity | inhibition of all nine identified crizotinib resistant ALK mutation [2]: can be inhibited
